# Source: PMC11435058, “Synthesis of New Thiazole-Privileged Chalcones as Tubulin Polymerization Inhibitors with Potential Anticancer Activities” (Pharmaceuticals, 2024)
# Legend:
# [1] = test system: LOX IMVI; test: NCI-60 anticancer screen (SRB; single dose and five doses); conditions: Homo sapiens; for activity at 10 µM: 48 h, read-out: Growth Percentage; for CC50: read-out: LC50; for IC (TGI): read-out: TGI
# [2] = test system: HCT-15; test: as above; conditions: Homo sapiens; for GI50 / IC50: HCT-15; for activity at 10 µM: HCT-15, 48 h, read-out: Growth Percentage; for CC50: HCT-15, read-out: LC50; for IC (TGI): HCT-15, read-out: TGI
# [3] = test system: UACC-257; test: as above; conditions: Homo sapiens; for GI50 / IC50: UACC-257; for activity at 10 µM: UACC-257, 48 h, read-out: Growth Percentage; for CC50: UACC-257, read-out: LC50; for IC (TGI): UACC-257, read-out: TGI
# [4] = test system: tubulin; test: In vitro tubulin polymerization inhibition assay; format: biochemical; conditions: 4 mg/mL tubulin, 37°C, absorbance at 340 nm
# Description: 4.2.2. In Vitro Tubulin Polymerization Inhibition Assay.
# 2p, and the reference drug CD -4) with the microtubule system. Specifically, the in vitro inhibition of tubulin polymerization was evaluated for these compounds. The standard tubulin polymerization reaction was carried out, containing 100 μL of 4 mg/mL tubulin in a buffer solution of 80 mM PIPES (pH 6.9), 0.5 mM EGTA, 2 mM MgCl2, and 1 mM GTP. Polymerization was initiated by incubating the reaction […]
# Under these conditions, polymerization typically reaches a maximum absorbance of […]
# growth, and steady state. In this experimental set up, an absorbance of 0.1 at 340 nm corresponds to approximately 1 mg/mL of polymerized tubulin, meaning that around […]
# 40% of the tubulin is polymerized, allowing for the detection of both enhancers and inhibitors of polymerization. The inhibitory effect of each compound on tubulin polymerization was quantified by determining the IC50 values, which were reported as the mean ± standard deviation from three independent experiments. […]
# [5] = test system: HCT-116; test: NCI-60 anticancer screen (SRB; single dose and five doses); conditions: Homo sapiens; for GI50 / IC50: HCT-116; for activity at 10 µM: HCT-116, 48 h, read-out: Growth Percentage; for CC50: HCT-116, read-out: LC50; for IC (TGI): HCT-116, read-out: TGI
# [6] = test system: OVCAR-8; test: as above; conditions: Homo sapiens; for GI50 / IC50: OVCAR-8; for activity at 10 µM: OVCAR-8, 48 h, read-out: Growth Percentage; for CC50: OVCAR-8, read-out: LC50; for IC (TGI): OVCAR-8, read-out: TGI
# [7] = test system: UO-31; test: as above; conditions: Homo sapiens; for GI50 / IC50: UO-31; for activity at 10 µM: UO-31, 48 h, read-out: Growth Percentage; for IC (TGI): UO-31, read-out: TGI
# [8] = test system: HCC-2998; test: as above; conditions: for GI50 / IC50 / activity at 10 µM / CC50: Homo sapiens; for GI50 / IC50: HCC 2998; for activity at 10 µM: HCC 2998, 48 h, read-out: Growth Percentage; for CC50: HCC 2998, read-out: LC50; for TGI: five-dose, Colon Cancer HCC-2998
SMILES,GI50 [1] [µM],activity at 10 µM [1] [%],CC50 [1] [µM],IC (TGI) [1] [µM],GI50 [2] [µM],activity at 10 µM [2] [%],CC50 [2] [µM],IC (TGI) [2] [µM],GI50 [3] [µM],activity at 10 µM [3] [%],CC50 [3] [µM],IC (TGI) [3] [µM],IC50 [4] [µM],GI50 [5] [µM],activity at 10 µM [5] [%],CC50 [5] [µM],IC (TGI) [5] [µM],GI50 [6] [µM],activity at 10 µM [6] [%],CC50 [6] [µM],other results
"Cc1[nH]c(=S)sc1C(=O)/C=C/c1cccc([N+](=O)[O-])c1 [2h, (E)-1-(4-Methyl-2-Thioxo-2,3-Dihydrothiazol-5-yl)-3-(3-Nitrophenyl)Prop-2-En-1-One]",1.58,-99,6.03,3.09,2.14,-36.4,31.6,7.76,3.39,9.4,38,13.5,12.5,2.88,-6.25,> 100,> 100,3.31,13.4,38,"IC50 [1]: 2.75 µM; IC50 [2]: 3.47 µM; IC50 [3]: 10 µM; IC50 [5]: 3.31 µM; IC50 [6]: 4.57 µM; IC (TGI) [6]: 11.8 µM; GI50 [7]: 3.89 µM; IC50 [7]: 10.7 µM; activity at 10 µM [7]: -89.6%; CC50 ([7]; UO-31, read-out: LC50): 43.6 µM; IC (TGI) [7]: 17 µM; GI50 [8]: 2 µM; IC50 [8]: 3.63 µM; activity at 10 µM [8]: -86.7%; CC50 [8]: 11.8 µM; TGI [8]: 4.57 µM"
"Cc1[nH]c(=S)sc1C(=O)/C=C/c1cccc(Cl)c1 [2e, (E)-3-(3-Chlorophenyl)-1-(4-Methyl-2-Thioxo-2,3-Dihydrothiazol-5-yl)Prop-2-En-1-One]",1.66,-26.1,5.75,3.09,2.09,-22,46.8,5.89,3.63,52.7,63.1,14.8,4.93,1.82,3.28,7.41,3.63,2.69,10.4,> 100,IC50 [1]: 2.88 µM; IC50 [2]: 3.55 µM; IC50 [3]: 9.77 µM; IC50 [5]: 2.95 µM; IC50 [6]: 3.89 µM; IC (TGI) [6]: 7.59 µM; GI50 [7]: 1.55 µM; IC50 [7]: 2.88 µM; activity at 10 µM [7]: 34.3%; IC (TGI) [7]: 3.09 µM; GI50 [8]: 2.57 µM; IC50 [8]: 4.37 µM; activity at 10 µM [8]: 13.9%; CC50 [8]: 28.2 µM
"Cc1[nH]c(=S)sc1C(=O)/C=C/c1ccc(Br)cc1 [2g, (E)-3-(4-Bromophenyl)-1-(4-Methyl-2-Thioxo-2,3-Dihydrothiazol-5-yl)Prop-2-En-1-One]",2.8,-5.17,33.7,10.2,2.66,5.48,36.4,10,11.3,69.1,51.9,24.2,18.5,3.82,16.6,40.9,13.1,2.86,-34.1,37.1,IC (TGI) [6]: 8.77 µM; GI50 [7]: 2.46 µM; activity at 10 µM [7]: 22.4%; IC (TGI) [7]: 13.5 µM; GI50 [8]: 2.72 µM; activity at 10 µM [8]: 3.23%; CC50 [8]: 31.6 µM; TGI [8]: 9.62 µM
